The values that follow come from patent publication US12410160B2 (Gilead Sciences, Inc., priority 2021, dated 2025).

One test has as its target human KHK-C (Homo sapiens (Human), UniProt P50053). The test can be described thus: KHK Biochemical Assay (IC50), ADP-Glo, KHK-C. Conditions: average of at least two separate assays. The method, boiled down:
(§1)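 His-tagged enzyme expressed in BL21 (DE3), Ni-NTA purified. Compounds, serially diluted 1:3 in DMSO, pre-incubated 30 min with enzyme in 50 mM Hepes pH 7.4, 140 mM KCl, 5 mM MgCl2, 0.01% Triton-X, then ATP and fructose added; 4 h at room temperature. ADP formation read by ADP-Glo luminescence.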
(In general: In ADP-Glo the light output rises with the ADP produced.)

A further test has as its target human KHK-A (Homo sapiens (Human), UniProt P50053). The test can be described thus: KHK Biochemical Assay (IC50), ADP-Glo, KHK-A. Conditions: average of at least two separate assays. Summed up:
as §1

Test [1] concerns the target KHK-C expressed in NRK-52E cells (Homo sapiens (Human), UniProt P50053). Nature of the test: KHK-C Cell-based Assay (EC50), NRK CTG, fructose-mediated ATP-depletion.

human KHK-C, sequence (P50053 whole entry): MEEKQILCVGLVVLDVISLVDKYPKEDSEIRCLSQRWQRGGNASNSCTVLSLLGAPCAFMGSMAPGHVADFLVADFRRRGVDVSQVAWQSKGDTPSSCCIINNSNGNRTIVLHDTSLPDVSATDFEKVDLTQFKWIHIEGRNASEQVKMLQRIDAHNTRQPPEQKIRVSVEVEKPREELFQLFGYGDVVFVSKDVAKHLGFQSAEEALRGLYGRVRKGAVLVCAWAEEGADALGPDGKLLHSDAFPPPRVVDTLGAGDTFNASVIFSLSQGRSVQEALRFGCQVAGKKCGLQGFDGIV
KHK-C expressed in NRK-52E cells, sequence (P50053 whole entry): as above
human KHK-A, sequence (P50053 other isoform, or with tags, fused parts or gaps): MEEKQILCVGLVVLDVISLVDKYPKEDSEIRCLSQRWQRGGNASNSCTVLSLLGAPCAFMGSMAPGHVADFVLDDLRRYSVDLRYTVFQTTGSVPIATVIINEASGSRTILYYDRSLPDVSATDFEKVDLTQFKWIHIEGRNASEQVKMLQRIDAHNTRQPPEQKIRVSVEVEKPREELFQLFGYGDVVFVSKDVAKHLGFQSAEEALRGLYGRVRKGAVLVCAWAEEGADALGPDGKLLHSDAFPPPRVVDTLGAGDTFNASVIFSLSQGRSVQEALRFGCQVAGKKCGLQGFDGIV

Consider `C[C@H]1CCN1c1nc2c(c(-c3ccc4c(c3)[C@]3(C[C@H]3c3nc[nH]n3)C(=O)N4)n1)CCC2` [Example 414, (1R,2R)-5′-(2-((S)-2-methylazetidin-1-yl)-6,7-dihydro-5H-cyclopenta[d]pyrimidin-4-yl)-2-(1H-1,2,4-triazol-3-yl)spiro[cyclopropane-1,3′-indolin]-2′-one], for which the 50% inhibitory concentration (IC50) was determined as 138 nM on human KHK-C and 397 nM on human KHK-A. The EC50 in test [1] is over 5000 nM.
On to `C[C@H]1CCN1c1nc2c(c(-c3cc(C(N)=O)c4ccccc4c3)n1)CCC2` [Example 423, (S)-3-(2-(2-methylazetidin-1-yl)-6,7-dihydro-5H-cyclopenta[d]pyrimidin-4-yl)-1-naphthamide], for which the values for the IC50 against human KHK-C and against human KHK-A were 81.4 nM and 66.1 nM, respectively. In test [1], this compound gave a half-maximal effective concentration (EC50) of 239 nM.
The like results for `C[C@H]1CCN1c1nc2c(c(-c3ccc4c(c3)C(=O)NC(=O)C4)n1)CCC2` [Example 424, (S)-7-(2-(2-methylazetidin-1-yl)-6,7-dihydro-5H-cyclopenta[d]pyrimidin-4-yl)isoquinoline-1,3(2H,4H)-dione] were, in that order, 136 nM, 169 nM and 3510 nM.
Turning to `C[C@H]1CCN1c1nc2c(c(-c3ccc4[nH]c(=O)[nH]c(=O)c4c3)n1)CCC2` [Example 425, 6-[2-[(2S)-2-methylazetidin-1-yl]-6,7-dihydro-5H-cyclopenta[d]pyrimidin-4-yl]-1H-quinazoline-2,4-dione], the half-maximal inhibitory concentration (IC50) against human KHK-C worked out at 31.4 nM; at human KHK-A it was 21.7 nM. The compound also showed an EC50 in test [1] of 122 nM.
For `C[C@H]1CCN1c1nc2c(c(-c3ccc4c(=O)[nH]c(=O)[nH]c4c3)n1)CCC2` [Example 426, 7-[2-[(2S)-2-methylazetidin-1-yl]-6,7-dihydro-5H-cyclopenta[d]pyrimidin-4-yl]-1H-quinazoline-2,4-dione] the same measures were 40.1 nM, 17.9 nM and 92.8 nM.
For `C[C@H]1CCN1c1nc2c(c(-c3ccc4c(c3)C3C(C4)C3C(=O)O)n1)CCC2` (stereo partly drawn) [Example 428, 3-[2-[(2S)-2-methylazetidin-1-yl]-6,7-dihydro-5H-cyclopenta[d]pyrimidin-4-yl]-1,1a,6,6a-tetrahydrocyclopropa[a]indene-1-carboxylic acid] the same measures were 41.3 nM, 38.4 nM and 387 nM.
The like results for `C[C@H]1CCN1c1nc2c(c(-c3ccc4c(=O)[nH][nH]c(=O)c4c3)n1)CCC2` [Example 429, 6-[2-[(2S)-2-methylazetidin-1-yl]-6,7-dihydro-5H-cyclopenta[d]pyrimidin-4-yl]-2,3-dihydrophthalazine-1,4-dione] were, in that order, 41.6 nM, 48.6 nM and 1730 nM.
With `NC(=O)c1ccc(-c2nc(N3CCC34CCC4)nc3c2CCC3)cc1` [Example 430, 4-[2-(1-azaspiro[3.3]heptan-1-yl)-6,7-dihydro-5H-cyclopenta[d]pyrimidin-4-yl]benzamide], the IC50 against human KHK-C turned out to be 2120 nM; on human KHK-A it was 3160 nM. Besides, the EC50 in test [1] amounted to 3220 nM.
For `NC(=O)c1ccc(-c2nc(N3CC(O)[C@@H]3Cc3ccccc3)nc3c2CCC3)cc1` (stereo partly drawn) [Example 431, 4-[2-[(2S)-2-benzyl-3-hydroxy-azetidin-1-yl]-6,7-dihydro-5H-cyclopenta[d]pyrimidin-4-yl]benzamide] the same measures were 513 nM, 808 nM and 711 nM.
The like results for `C[C@H]1CCN1c1nc2c(c(-c3cccc4c3CC3C(C(=O)O)C43)n1)CCC2` (stereo partly drawn) [Example 432, 5-[2-[(2S)-2-methylazetidin-1-yl]-6,7-dihydro-5H-cyclopenta[d]pyrimidin-4-yl]-1,1a,6,6a-tetrahydrocyclopropa[a]indene-1-carboxylic acid] were, in that order, 360 nM, 323 nM and 2630 nM.
With `NC(=O)c1ccc(-c2nc(N3CCC34CCOC4)nc3c2CCC3)cc1` (stereo not drawn) [Example 434, 4-[2-(7-oxa-1-azaspiro[3.4]octan-1-yl)-6,7-dihydro-5H-cyclopenta[d]pyrimidin-4-yl]benzamide], the 50% inhibitory concentration (IC50) amounted to 1620 nM against human KHK-C and 2930 nM at human KHK-A. Moreover, the concentration for a half-maximal effect (EC50) in test [1] was determined as 3310 nM.
For `C[C@H]1CCN1c1nc2c(c(-c3cccc(C4CC(C(=O)O)C4)c3)n1)CCC2` (stereo partly drawn) [Example 439, 3-[3-[2-[(2S)-2-methylazetidin-1-yl]-6,7-dihydro-5H-cyclopenta[d]pyrimidin-4-yl]phenyl]cyclobutanecarboxylic acid] the same measures were 13.1 nM, 15.4 nM and 124 nM.
The like results for `C[C@H]1CCN1c1nc2c(c(-c3ccnc(OC(F)F)c3)n1)CCC2` [Example 453, 4-[2-(difluoromethoxy)-4-pyridyl]-2-[(2S)-2-methylazetidin-1-yl]-6,7-dihydro-5H-cyclopenta[d]pyrimidine] were, in that order, 776 nM, 1010 nM and 1040 nM.
Turning to `C[C@H]1CCN1c1nc2c(c(-c3ccc(C4(C(=O)O)CC4)cc3)n1)CCC2` [Example 455, 1-[4-[2-[(2S)-2-methylazetidin-1-yl]-6,7-dihydro-5H-cyclopenta[d]pyrimidin-4-yl]phenyl]cyclopropanecarboxylic acid], the concentration for half-maximal inhibition (IC50) is 248 nM at human KHK-C and 497 nM at human KHK-A. The concentration giving a half-maximal response (EC50) in test [1] was over 5000 nM.
For `C[C@H]1[C@H](O)CN1c1nc(-c2ccc3c(c2)CCC32CCC(=O)N2)c2c(n1)C(F)(F)CC2` (stereo partly drawn) [Example 636, 5-(7,7-difluoro-2-((2S,3R)-3-hydroxy-2-methylazetidin-1-yl)-6,7-dihydro-5H-cyclopenta[d]pyrimidin-4-yl)-2,3-dihydrospiro[indene-1,2′-pyrrolidin]-5′-one] the same measures were 0.5 nM, 11.4 nM and 13 nM.
Turning to `COc1c(C)cc(-c2nc(N3C[C@@H](O)[C@@H]3C)nc3c2CCC3(F)F)cc1S(C)(=N)=O` (stereo partly drawn) [Example 722, (5-(7,7-difluoro-2-((2S,3R)-3-hydroxy-2-methylazetidin-1-yl)-6,7-dihydro-5H-cyclopenta[d]pyrimidin-4-yl)-2-methoxy-3-methylphenyl)(imino)(methyl)-λ^6-sulfanone], the concentration for half-maximal inhibition (IC50) on human KHK-C came to 5 nM; against human KHK-A, 8 nM. The same compound displayed a half-maximal effective concentration (EC50) in test [1] of 25.7 nM.
The like results for `C[C@H]1CCN1c1nc2c(c(-c3ccc4[nH]nnc4c3)n1)CCC2` [Example 729, (S)-5-(2-(2-methylazetidin-1-yl)-6,7-dihydro-5H-cyclopenta[d]pyrimidin-4-yl)-1H-benzo[d][1,2,3]triazole] were, in that order, 33.5 nM, 29.1 nM and 273 nM.
On to `NC1(c2ccc(-c3nc(N4CCC4C(F)F)nc4c3CCC4(F)F)cc2)CS(=O)(=O)C1` (stereo not drawn) [Example 799, 3-amino-3-(4-(2-(2-(difluoromethyl)azetidin-1-yl)-7,7-difluoro-6,7-dihydro-5H-cyclopenta[d]pyrimidin-4-yl)phenyl)thietane 1,1-dioxide], for which the IC50 against human KHK-C (ADP-Glo) came out at 1.9 nM; against human KHK-A (ADP-Glo), 16.2 nM. In test [1], this compound yielded a concentration giving a half-maximal response (EC50) of 21.5 nM.

Usually IC50 stands for the point on the concentration scale where inhibition reaches its midpoint. The low end stands for inhibition by little substance, the high end for a need for much substance. In general, EC50 refers to the concentration at which the effect is half-maximal. Low values mean an effect from little substance, high ones a need for much substance.
